We go through 12 compounds from ChEMBL document CHEMBL1146259, “Structure-activity relationships of the ultrapotent vanilloid resiniferatoxin (RTX): the homovanillyl moiety” (Bioorg Med Chem Lett, 2007).

pEC50: −log10 of the molar value.

In this experiment the target is Transient receptor potential cation channel subfamily V member 1 (Homo sapiens, UniProt Q8NER1). Description: Agonist activity at human recombinant TRPV1 expressed in human HEK293 cells. It counts as functional, cell-based.
Sequence of Transient receptor potential cation channel subfamily V member 1 (Q8NER1 whole entry): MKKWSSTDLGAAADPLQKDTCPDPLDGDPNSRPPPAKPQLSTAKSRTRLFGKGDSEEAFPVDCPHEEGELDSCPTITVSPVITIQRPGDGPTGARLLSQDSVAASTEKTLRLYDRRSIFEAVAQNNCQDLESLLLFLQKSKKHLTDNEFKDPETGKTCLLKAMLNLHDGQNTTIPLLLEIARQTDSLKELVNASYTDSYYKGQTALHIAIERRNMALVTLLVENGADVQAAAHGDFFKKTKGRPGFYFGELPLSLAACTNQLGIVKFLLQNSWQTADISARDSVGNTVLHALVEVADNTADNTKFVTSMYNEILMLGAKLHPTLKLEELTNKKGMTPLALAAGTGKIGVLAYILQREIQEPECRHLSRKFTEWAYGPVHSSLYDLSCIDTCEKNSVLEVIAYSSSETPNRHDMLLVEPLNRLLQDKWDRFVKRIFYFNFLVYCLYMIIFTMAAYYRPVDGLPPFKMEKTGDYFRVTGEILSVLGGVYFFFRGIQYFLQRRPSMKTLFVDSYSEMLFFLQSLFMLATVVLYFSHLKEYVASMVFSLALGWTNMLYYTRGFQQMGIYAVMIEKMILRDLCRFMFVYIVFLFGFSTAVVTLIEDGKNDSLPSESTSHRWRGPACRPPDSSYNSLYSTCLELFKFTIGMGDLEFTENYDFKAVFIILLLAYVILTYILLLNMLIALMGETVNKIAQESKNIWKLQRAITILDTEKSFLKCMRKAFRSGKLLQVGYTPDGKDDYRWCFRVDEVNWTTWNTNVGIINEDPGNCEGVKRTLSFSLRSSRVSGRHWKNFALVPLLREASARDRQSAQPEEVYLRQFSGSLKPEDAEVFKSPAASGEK

The pEC50 is the EC50 on a negative log10 scale, so that one unit is a factor of ten. On to `C=C(C)[C@]12C[C@@H](C)[C@@]3(OCc4ccccc4)[C@@H](C=C(COC(=O)CCc4cc(OC)c(O)cc4I)C[C@]4(O)C(=O)C(C)=C[C@@H]34)[C@H]1OCO2`, for which the pEC50 was 8.10.
Consider `C=C(C)[C@]12C[C@@H](C)[C@@]3(OCc4ccccc4)[C@@H](C=C(COC(=O)Cc4ccccc4)C[C@]4(O)C(=O)C(C)=C[C@@H]34)[C@H]1OCO2`, for which the negative logarithm of the EC50 (pEC50) was 8.33.
Under `C=C(C)[C@]12C[C@@H](C)[C@@]3(OCc4ccccc4)[C@@H](C=C(COC(=O)c4ccc(O)c(OC)c4)C[C@]4(O)C(=O)C(C)=C[C@@H]34)[C@H]1OCO2` stands 8.03; under `C=C(C)[C@]12C[C@@H](C)[C@@]3(OCc4ccccc4)[C@@H](C=C(COC(=O)/C=C/c4ccc(O)c(OC)c4)C[C@]4(O)C(=O)C(C)=C[C@@H]34)[C@H]1OCO2`, 8.82.
Under `C=C(C)[C@]12C[C@@H](C)[C@@]3(OCc4ccccc4)[C@@H](C=C(COC(=O)c4cc(OC)c(O)cc4I)C[C@]4(O)C(=O)C(C)=C[C@@H]34)[C@H]1OCO2` stands 7.82.
For `C=C(C)[C@]12C[C@@H](C)[C@@]3(OCc4ccccc4)[C@@H](C=C(COC(=O)c4ccccc4)C[C@]4(O)C(=O)C(C)=C[C@@H]34)[C@H]1OCO2` the value was 7.59.
For the compound `C=C(C)[C@]12C[C@@H](C)[C@@]3(OCc4ccccc4)[C@@H](C=C(COC(=O)c4cc(I)c(O)c(OC)c4)C[C@]4(O)C(=O)C(C)=C[C@@H]34)[C@H]1OCO2`, the negative-log EC50 (pEC50) was 8.72.
Under `C=C(C)[C@]12C[C@@H](C)[C@@]3(OCc4ccccc4)[C@@H](C=C(COC(=O)CCc4ccc(O)c(OC)c4)C[C@]4(O)C(=O)C(C)=C[C@@H]34)[C@H]1OCO2` stands 8.34; under `C=C(C)[C@]12C[C@@H](C)[C@@]3(OCc4ccccc4)[C@@H](C=C(COC(=O)CCc4ccccc4)C[C@]4(O)C(=O)C(C)=C[C@@H]34)[C@H]1OCO2`, 7.29.
Under `C=C(C)[C@]12C[C@@H](C)[C@@]3(OCc4ccccc4)[C@@H](C=C(COC(=O)/C=C/c4ccccc4)C[C@]4(O)C(=O)C(C)=C[C@@H]34)[C@H]1OCO2` stands 7.16; under `C=C(C)[C@]12C[C@@H](C)[C@@]34O[C@](Cc5ccccc5)(O[C@@H]1[C@@H]3C=C(COC(=O)Cc1ccc(O)c(OC)c1)C[C@]1(O)C(=O)C(C)=C[C@@H]41)O2` [RESINIFERATOXIN], 10.72.
Under `C=C(C)[C@]12C[C@@H](C)[C@@]3(OCc4ccccc4)[C@@H](C=C(COC(=O)CCc4cc(I)c(O)c(OC)c4)C[C@]4(O)C(=O)C(C)=C[C@@H]34)[C@H]1OCO2` stands 8.07.
